Measurements as given in publication PMC10692101, “3-(4-Hydroxy-3-methoxyphenyl) propionic acid contributes to improved hepatic lipid metabolism via GPR41” (Scientific Reports, 2023).

Legend:
GPR41 [1] = target: T1, GPR41 (Mus musculus, UniProt Q3UFD7); test: inhibition of forskolin-induced cAMP in doxycycline-inducible mouse GPR41 HEK293 cells; assay type: cell-based
T1 construct: gene Ffar3; mouse GPR41 cDNA in pcDNA5/FRT/TO, expressed in Flp-In T-Rex HEK 293 cells
T1 sequence (Q3UFD7 1-319): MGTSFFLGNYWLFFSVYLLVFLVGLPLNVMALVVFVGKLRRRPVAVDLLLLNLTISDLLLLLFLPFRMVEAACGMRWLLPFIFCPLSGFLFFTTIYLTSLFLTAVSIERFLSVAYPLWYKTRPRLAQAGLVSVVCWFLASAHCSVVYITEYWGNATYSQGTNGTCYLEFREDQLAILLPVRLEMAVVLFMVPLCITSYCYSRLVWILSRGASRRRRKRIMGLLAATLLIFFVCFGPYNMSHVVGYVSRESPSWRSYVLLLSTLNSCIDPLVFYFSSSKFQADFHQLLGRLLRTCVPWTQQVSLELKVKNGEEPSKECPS

GPR41 [2] = target: T1, GPR41; test: inhibition of forskolin-induced cAMP in doxycycline-inducible mouse GPR41 HEK293 cells; Dox(-) controls inactive; assay type: cell-based

| EC50 (GPR41 [1]) | EC50 (GPR41 [2]) | SMILES |
| --- | --- | --- |
| 5.58 mM | – | COc1cc(/C=C/C(=O)O)ccc1O [HMCA, 4-hydroxy-3-methoxycinnamic acid] |
| – | 2.36 mM | COc1cc(CCC(=O)O)ccc1O [HMPA, 3-(4-hydroxy-3-methoxyphenyl) propionic acid] |
